These results are taken from patent US20230322756A1, “FUSED IMIDAZOLE DERIVATIVE, PREPARATION METHOD THEREFOR, AND MEDICAL USE THEREOF” (JIANGSU HENGRUI MEDICINE CO., LTD., priority 2020, published 2023).

GLP-1 receptor, sequence (P43220 24-463): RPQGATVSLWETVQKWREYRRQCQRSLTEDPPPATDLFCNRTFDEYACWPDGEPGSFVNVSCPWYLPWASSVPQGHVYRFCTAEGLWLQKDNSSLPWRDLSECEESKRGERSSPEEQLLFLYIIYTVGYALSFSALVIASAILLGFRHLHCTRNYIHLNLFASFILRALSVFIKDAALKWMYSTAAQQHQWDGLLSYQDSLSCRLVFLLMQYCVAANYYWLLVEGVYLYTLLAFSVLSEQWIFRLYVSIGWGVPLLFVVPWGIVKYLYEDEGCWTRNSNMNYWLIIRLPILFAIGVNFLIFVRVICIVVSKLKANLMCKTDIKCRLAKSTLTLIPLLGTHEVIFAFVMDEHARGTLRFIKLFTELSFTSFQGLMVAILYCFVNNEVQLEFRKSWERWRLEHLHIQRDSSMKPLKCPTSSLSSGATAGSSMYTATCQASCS
hERG potassium channel, sequence (Q12809 whole entry): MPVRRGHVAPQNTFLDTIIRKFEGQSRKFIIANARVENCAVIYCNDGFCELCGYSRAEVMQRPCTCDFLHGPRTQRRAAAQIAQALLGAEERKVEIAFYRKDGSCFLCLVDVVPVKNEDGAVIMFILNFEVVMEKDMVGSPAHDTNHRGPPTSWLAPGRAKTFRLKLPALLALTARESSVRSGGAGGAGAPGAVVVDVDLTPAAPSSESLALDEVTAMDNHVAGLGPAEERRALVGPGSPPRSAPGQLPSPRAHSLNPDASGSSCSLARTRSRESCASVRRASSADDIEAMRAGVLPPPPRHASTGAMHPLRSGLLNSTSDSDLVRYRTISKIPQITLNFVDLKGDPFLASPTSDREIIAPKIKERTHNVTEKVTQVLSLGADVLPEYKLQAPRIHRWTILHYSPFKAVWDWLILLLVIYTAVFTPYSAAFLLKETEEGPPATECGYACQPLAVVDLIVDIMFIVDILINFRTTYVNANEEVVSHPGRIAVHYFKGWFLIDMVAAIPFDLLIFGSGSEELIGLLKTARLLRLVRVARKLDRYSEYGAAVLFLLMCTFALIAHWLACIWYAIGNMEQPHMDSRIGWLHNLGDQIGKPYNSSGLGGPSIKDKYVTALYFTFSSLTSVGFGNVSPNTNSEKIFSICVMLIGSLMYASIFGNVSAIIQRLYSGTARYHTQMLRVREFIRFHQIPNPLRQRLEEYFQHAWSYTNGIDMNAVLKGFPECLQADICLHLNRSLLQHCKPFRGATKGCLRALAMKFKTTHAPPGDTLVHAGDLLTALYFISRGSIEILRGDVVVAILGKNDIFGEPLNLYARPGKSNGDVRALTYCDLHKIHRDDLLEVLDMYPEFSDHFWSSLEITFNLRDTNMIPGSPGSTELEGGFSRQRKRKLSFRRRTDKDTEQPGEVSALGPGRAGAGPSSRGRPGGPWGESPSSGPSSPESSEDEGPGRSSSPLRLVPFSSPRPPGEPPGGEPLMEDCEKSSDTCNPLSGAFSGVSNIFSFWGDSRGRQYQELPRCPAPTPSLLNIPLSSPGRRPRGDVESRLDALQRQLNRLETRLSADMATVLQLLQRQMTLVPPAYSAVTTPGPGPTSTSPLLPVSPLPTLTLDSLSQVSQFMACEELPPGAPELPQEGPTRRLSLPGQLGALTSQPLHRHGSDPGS

In one data set the target is hERG potassium channel (Homo sapiens (Human), UniProt Q12809). Briefly: Blocking effect on hERG potassium currents, manual patch-clamp in CHO cells stably expressing hERG channel. The data set is classed as cell-based. The following applies: read-out: IC50 for the blocking effect on the hERG potassium ion channel. The text has this:
This example is intended to assess the blocking effect of the compounds of the present disclosure and positive compound 1 (see the compound of Example 7 on page 125 of WO2019239319A1) on hERG potassium currents in a stable cell strain transfected with an hERG potassium channel by a manual patch-clamp assay. The structure of positive compound 1 is shown below:
The cells used in this experiment were from a CHO cell line (provided by Sophion Bioscience, Denmark) transfected with hERG cDNA and stably expressing hERG channel at cell passage number of P5. Cells were cultured in a medium containing the following components (all from Invitrogen): Ham's F12 medium, 10% (v/v) inactivated fetal bovine serum, 100 μg/mL hygromycin B, and 100 μg/mL geneticin.
CHO hERG cells were grown in a culture dish containing the above culture medium and cultured in an incubator at 37° C. with 5% CO2. 24-48 h before the electrophysiological experiment, CHO hERG cells were transferred to round slides placed in the culture dish and grown in the same culture medium and culture conditions as above. The density of CHO hERG cells on each round slide was required to achieve the requirement that most cells were independent and individual.
In this experiment, a manual patch-clamp system (HEKA EPC-10 signal amplifier and digital conversion system, purchased from HEKA Electronics, Germany) was used for whole cell current recording. Round slides with CHO hERG cells grown on the surface were placed in an electrophysiological recording chamber under an inverted microscope. The chamber was continuously perfused with extracellular fluid (approximately 1 mL/min). The experimental procedures were performed by conventional whole-cell patch-clamp current recording technology. Unless otherwise stated, the experiment was performed at room temperature ([…]). The cells were clamped at a voltage of −80 mV. The cell clamp voltage was depolarized to +20 mV to activate the hERG potassium channel, and then clamped to −50 mV 5 s later to eliminate inactivation and generate tail currents. The tail current peak was used as a value for the numeral value of the hERG current. After the hERG potassium currents recorded in the above step were stable under the continuous extracellular fluid perfusion in the recording chamber, the drug to be tested could be added for perfusion until the inhibitory effect of the drug on the hERG current reached a stable state. Generally, the last superposition of 3 consecutive current recording lines is used as a criterion for determining whether a stable state is reached. […]
The experimental data were analyzed by data analysis software supplied by HEKA Patchmaster(V2x73.2), Microsoft Excel, and Graphpad Prism 5.0. […]
(In general: The hERG channel carries a current that helps repolarise heart muscle cells.)
Turning to `O=C(O)c1ccc2nc(CN3CCC(c4cccc5c4OC(c4ccc(Cl)cc4F)CO5)CC3)n(C[C@@H]3CCO3)c2n1` (stereo partly drawn) [Example 12, 2-((4-(3-(4-Chloro-2-fluorophenyl)-2,3-dihydrobenzo[b][1,4]dioxan-5-yl)piperidin-1-yl)methyl)-3-((S)-oxetan-2-ylmethyl)-3H-imidazo[4,5-b]pyridine-5-carboxylic acid], the half-maximal inhibitory concentration (IC50) was 26100 nM.

The target in another data set is GLP-1 receptor (Homo sapiens (Human), UniProt P43220). Kind of data set: Agonist activity against GLP-1 receptor, CRE-luciferase reporter (ONE-Glo) in CHO-K1/CRE-luc/GLP-1 receptor cells. It is filed as cell-based. The following applies: 6 h incubation. The source says:
This experiment was intended to test the agonist activity of the compound molecules against the GLP-1 receptor and evaluate the in vitro activity of the molecules according to EC50. The experiment adopted a ONE-Glo™ Luciferase Assay System (Promega, E6110). Under the action of compound molecules, GLP-1R downstream signaling pathways were activated to cause elevated cAMP level. The combination of cAMP and CRE could start the transcription expression of CRE downstream luciferase genes, the luciferase could emit fluorescence when reacting with substrates thereof, and the activity of the compound for agonizing GLP-1 receptors was reflected by measuring fluorescence signals through a ONE-Glo™ reagent.
Stably-expressed CHO-K1/CRE-luc/GLP-1 receptor cell strains (self-construction of GLP-1 receptor plasmid; CRE-luc plasmid Promega E8471) were constructed. CHO-K1/CRE-luc/GLP-1 receptor cells were digested, and resuspended after centrifugation. […] The plate was incubated in an incubator for 16 h (37° C., 5% CO2).
The compound was dissolved in DMSO to prepare a stock solution with an initial concentration of 20 mM. The starting concentration of the small molecule compound was 0.2 mM, and the compound underwent 3-fold serial dilution for a total of 10 concentration points, with DMSO at the 11th point. To another 96-well plate was added 95 μL of cell culture medium (DME/F-12+10% FBS), 5 μL of test samples with different concentrations were added to each well, followed by uniform mixing, and then 10 μL of test samples with different concentrations were added to each well, with two duplicate wells set for each sample. The plate was incubated in an incubator for 6 h (37° C., 5% CO2). The 96-well cell culture plate was taken out, and 100 μL of ONE-Glo™ reagent was added to each well, followed by incubation at room temperature for 10 min. The plate was placed in a microplate reader (EnVision 2105, PE) for determination of chemiluminescence.
Data were processed and analyzed using Microsoft Excel and Graphpad Prism 5.
As for `O=C(O)c1ccc2nc(CN3CCC(c4cccc5c4OC(c4ccc(Cl)cn4)CO5)CC3)n(C[C@@H]3CCO3)c2c1` (stereo partly drawn) [Example 13, 2-((4-(3-(5-Chloropyridin-2-yl)-2,3-dihydrobenzo[b][1,4]dioxan-5-yl)piperidin-1-yl)methyl)-1-(((S)-oxetan-2-yl)methyl)-1H-benzo[d]imidazole-6-carboxylic acid], the EC50 is 1.76 nM and the Emax was determined as 108%.
On the same counts, the results for `O=C(O)c1ccc2nc(CN3CCN(c4cccc5c4O[C@@H](c4ccc(Cl)cc4F)CO5)CC3)n(C[C@@H]3CCO3)c2c1` [Example 14, 2-((4-((S)-3-(4-Chloro-2-fluorophenyl)-2,3-dihydrobenzo[b][1,4]dioxan-5-yl)piperazin-1-yl)methyl)-1-(((S)-oxetan-2-yl)methyl)-1H-benzo[d]imidazole-6-carboxylic acid] are 1.79 nM and 104%.
Consider `O=C(O)c1ccc2nc(CN3CCC(c4cccc5c4OC(c4nc6ccccc6s4)CO5)CC3)n(C[C@@H]3CCO3)c2c1` (stereo partly drawn) [Example 1, 2-((4-(3-(Benzo[d]thiazol-2-yl)-2,3-dihydrobenzo[b][1,4]dioxan-5-yl)piperidin-1-yl)methyl)-1-(((S)-oxetan-2-yl)methyl)-1H-benzo[d]imidazole-6-carboxylic acid], for which the half-maximal effective concentration (EC50) was determined as 0.56 nM and the Emax is 109%.
As for `O=C(O)c1ccc2nc(CN3CC=C(c4cccc5c4OC(c4ccc(Cl)cc4F)CO5)CC3)n(C[C@@H]3CCO3)c2c1` (some centres unmarked) [Example 17], the 50% effective concentration (EC50) amounted to 9.9 nM and the maximal effect (Emax) worked out at 112%.
For `O=C(O)c1ccc2nc(CN3CCC(c4cccc5c4OC[C@@H](c4nc6ccccc6s4)O5)CC3)n(C[C@@H]3CCO3)c2c1` [Example 11, 2-((4-((S)-2-(Benzo[d]thiazol-2-yl)-2,3-dihydrobenzo[b][1,4]dioxan-5-yl)piperidin-1-yl)methyl)-1-(((S)-oxetan-2-yl)methyl)-1H-benzo[d]imidazole-6-carboxylic acid], in that order: 1.68 nM and 104%.
For `CC1(c2ccc(Cl)cc2F)COc2cccc(C3CCN(Cc4nc5ccc(C(=O)O)cc5n4C[C@@H]4CCO4)CC3)c2O1` (stereo partly drawn) [Example 20, 2-((4-(3-(4-Chloro-2-fluorophenyl)-3-methyl-2,3-dihydrobenzo[b][1,4]dioxan-5-yl)piperidin-1-yl)methyl)-1-(((S)-oxetan-2-yl)methyl)-1H-benzo[d]imidazole-6-carboxylic acid], in that order: 51 nM and 90%.
Take `N#Cc1ccc(C2COc3cccc(C4CCN(Cc5nc6ccc(C(=O)O)cc6n5C[C@@H]5CCO5)CC4)c3O2)c(F)c1` (stereo partly drawn) [Example 16, 2-((4-(3-(4-Cyano-2-fluorophenyl)-2,3-dihydrobenzo[b][1,4]dioxan-5-yl)piperidin-1-yl)methyl)-1-((S)-oxetan-2-ylmethyl)-1H-benzo[d]imidazole-6-carboxylic acid]: the half-maximal effective concentration (EC50) was 1.42 nM and the Emax turned out to be 116%.
For `O=C(O)c1ccc2nc(CN3CCC(c4cccc5c4OC(c4ccc(Cl)cc4F)CO5)CC3)n(C[C@@H]3CCO3)c2n1` (stereo partly drawn) [Example 12, 2-((4-(3-(4-Chloro-2-fluorophenyl)-2,3-dihydrobenzo[b][1,4]dioxan-5-yl)piperidin-1-yl)methyl)-3-((S)-oxetan-2-ylmethyl)-3H-imidazo[4,5-b]pyridine-5-carboxylic acid], in that order: 1.72 nM and 114%.
For `O=C(O)c1ccc2nc(CN3CCC(c4cccc5c4OC[C@H](c4nc6ccccc6s4)O5)CC3)n(C[C@@H]3CCO3)c2c1` [Example 10, 2-((4-((R)-2-(Benzo[d]thiazol-2-yl)-2,3-dihydrobenzo[b][1,4]dioxan-5-yl)piperidin-1-yl)methyl)-1-(((S)-oxetan-2-yl)methyl)-1H-benzo[d]imidazole-6-carboxylic acid], in that order: 1.19 nM and 103%.
On the same counts, the results for `O=C(O)c1ccc2nc(CN3CCC(c4cccc5c4OCC(c4nc6ccccc6s4)O5)CC3)n(C[C@@H]3CCO3)c2c1` (stereo partly drawn) [Example 9, 2-((4-(2-(Benzo[d]thiazol-2-yl)-2,3-dihydrobenzo[b][1,4]dioxan-5-yl)piperidin-1-yl)methyl)-1-(((S)-oxetan-2-yl)methyl)-1H-benzo[d]imidazole-6-carboxylic acid] are 2.05 nM and 104%.
On to `CC1(c2ccc(Cl)cc2F)COc2c(cccc2C2CCN(Cc3nc4ccc(C(=O)O)cc4n3C[C@@H]3CCO3)CC2)O1` (stereo partly drawn) [Example 18, 2-((4-(2-(4-Chloro-2-fluorophenyl)-2-methyl-2,3-dihydrobenzo[b][1,4]dioxan-5-yl)piperidin-1-yl)methyl)-1-(((S)-oxetan-2-yl)methyl)-1H-benzo[d]imidazole-6-carboxylic acid], for which the EC50 worked out at 18.4 nM and the Emax amounted to 103%.

Broadly, the IC50 is the concentration that inhibits the measured activity by half. Usually EC50 stands for the concentration giving half of the maximal effect. As usually defined, the Emax is the greatest response seen or fitted, relative to the assay's reference.
